From patent publication US20230159538A1, “PYRROLIDINE-PYRAZOLES AS PYRUVATE KINASE ACTIVATORS” (Global Blood Therapeutics, Inc., priority 2020, published 2023)

Assays:
[1] = target: T1, Human pyruvate kinase R (PKR) (Homo sapiens, UniProt P30613); experiment: Biochemical assay for activation of pyruvate kinase R (Kinase-Glo luminescence, ATP generation); details: for AC50: 0.1 nM PKR, 2 mM FBP, 0.3 mM ADP, 0.1 mM PEP; for PKR % activation: maximal activation level relative to the activation level achieved by AG-348 @ 10 μM
T1 construct: Human pyruvate kinase R (PKR), residues 14-574; 6x-His (N, cleaved yes); 8x-Arg (N, cleaved yes); SUMO (N, cleaved yes); host or cells: E. coli
Summary of the method: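 E. coli-expressed human PKR, freed of its His-Arg-SUMO tag and purified by anion exchange and size exclusion, was tested for activation. Read-out was luminescent measurement of ATP generation with Kinase-Glo reagent.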

[2] = target: T2, Pyruvate kinase M2 (PKM2) in H1299 cells (Homo sapiens, UniProt P14618); experiment: Cell based assay for activation of pyruvate kinase M2 in lung carcinoma cell line (NADH/LDH coupled assay on cell lysate); details: PKM2 cellular assay; for AC50: H1299 cells, 90 minutes with compound; for PKM2 % activation: maximal activation level relative to the activation level achieved by AG-348 @ 10 μM
T2 construct: endogenous in cells; host or cells: H1299
Experimental: Cell Based Assay for Activation of Pyruvate Kinase M2 in Lung Carcinoma Cell Line
H1299 cells were seeded in 96-well plates at 2,000 cells/well (100 uL). Treated plates were incubated overnight at 37° C. with 5% CO2. Compounds were diluted in complete media and added to cells in the presence of 1% DMSO. Cells were incubated with compound for 90 minutes at 37° C. and 5% CO2 before washing three times with PBS to remove residual compound and then lysed in lysis buffer (Cell Signaling). […] PKM2 activity was measured at steady state using a coupled enzyme activation system based on NADH consumption. PKM2 produces pyruvate and the coupled system uses lactate dehydrogenase (LDH) to reduce pyruvate to lactate with the concomitant oxidation of NADH to NAD^+. Conversion of NADH to NAD^+ was monitored using a SPECTROstar Nano plate reader (BMG Labtech) at a wavelength of 340 nm and subtraction of background absorbance measured at 750 nm. The change in NADH absorbance after PEP addition was monitored and slope obtained by subtracting baseline at 750 nm followed by least squares fitting to a simple linear regression model. A 10-point curve was generated to calculate the AC50 values by fitting the rates of NADH consumption against increasing concentration of compound.

T1 sequence (P30613 14-574): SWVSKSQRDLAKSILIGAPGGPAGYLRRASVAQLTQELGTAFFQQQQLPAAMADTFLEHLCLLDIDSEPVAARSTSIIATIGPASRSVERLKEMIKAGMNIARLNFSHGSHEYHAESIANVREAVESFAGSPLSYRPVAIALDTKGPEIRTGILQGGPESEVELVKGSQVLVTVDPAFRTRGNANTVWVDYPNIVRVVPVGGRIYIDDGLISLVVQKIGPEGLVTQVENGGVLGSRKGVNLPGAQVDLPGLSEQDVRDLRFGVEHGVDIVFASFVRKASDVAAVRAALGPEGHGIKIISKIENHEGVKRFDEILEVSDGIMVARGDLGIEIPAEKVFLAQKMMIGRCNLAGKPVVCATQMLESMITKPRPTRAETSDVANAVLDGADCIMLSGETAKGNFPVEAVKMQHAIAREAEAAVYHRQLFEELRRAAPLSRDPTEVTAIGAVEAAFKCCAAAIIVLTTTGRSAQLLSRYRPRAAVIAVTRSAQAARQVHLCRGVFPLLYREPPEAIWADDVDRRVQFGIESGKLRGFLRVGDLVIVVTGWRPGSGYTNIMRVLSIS
T2 sequence (P14618 2-531 limits assumed): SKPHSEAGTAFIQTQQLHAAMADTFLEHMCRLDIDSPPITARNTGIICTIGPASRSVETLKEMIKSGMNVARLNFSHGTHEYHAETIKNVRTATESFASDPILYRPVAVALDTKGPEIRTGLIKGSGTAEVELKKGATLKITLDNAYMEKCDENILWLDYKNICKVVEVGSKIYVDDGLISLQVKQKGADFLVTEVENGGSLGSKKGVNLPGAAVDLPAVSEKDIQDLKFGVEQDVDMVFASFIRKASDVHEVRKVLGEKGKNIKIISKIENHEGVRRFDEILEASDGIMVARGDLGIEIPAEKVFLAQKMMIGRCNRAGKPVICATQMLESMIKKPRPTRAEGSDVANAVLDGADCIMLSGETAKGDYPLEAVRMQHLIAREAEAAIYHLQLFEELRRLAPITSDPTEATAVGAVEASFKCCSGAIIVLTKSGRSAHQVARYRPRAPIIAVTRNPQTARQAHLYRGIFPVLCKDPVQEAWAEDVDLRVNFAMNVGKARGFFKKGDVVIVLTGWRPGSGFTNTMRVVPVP

Compound | AC50 [1] [nM] | AC50 [2] [nM] | PKR % activation [1] [%] | PKM2 % activation [2] [%]
NC(C(=O)N1Cc2cn(S(=O)(=O)c3ccc4ncsc4c3)nc2C1)c1cccc(C(F)(F)F)c1 (racemic) [Compound 26, 2-amino-1-[2-(1,3-benzothiazole-6-sulfonyl)-2H,4H,5H,6H-pyrrolo[3,4-c]pyrazol-5-yl]-2-[3-(trifluoromethyl)phenyl]ethan-1-one] | 72 | 147 |  | 
Cc1cc(C(N)C(=O)N2Cc3cn(S(=O)(=O)c4ccc5ncsc5c4)nc3C2)ccc1F (racemic) [Compound 39, 2-amino-1-[2-(1,3-benzothiazole-6-sulfonyl)-2H,4H,5H,6H-pyrrolo[3,4-c]pyrazol-5-yl]-2-(4-fluoro-3-methylphenyl)ethan-1-one] | 41 | 53 |  | 
C[C@@H](O)[C@H](C(=O)N1Cc2cn(S(=O)(=O)c3ccc4ncsc4c3)nc2C1)c1ccccc1 (single isomer, unassigned) [Compound 3] | 44 | 45 | 104 | 101
CC(O)C(C(=O)N1Cc2cn(S(=O)(=O)c3ccc4ncsc4c3)nc2C1)c1ccccc1 (single isomer, unassigned) [Compound 5] | 82 | 38 |  | 
O=C([C@@H](CO)c1ccccc1)N1Cc2cn(S(=O)(=O)c3ccc(OC(F)F)cc3)nc2C1 (single isomer, unassigned) [Compound 7, (2R)-1-{2-[4-(difluoromethoxy)benzenesulfonyl]-2H,4H,5H,6H-pyrrolo[3,4-c]pyrazol-5-yl}-3-hydroxy-2-phenylpropan-1-one, or (2S)-1-{2-[4-(difluoromethoxy)benzenesulfonyl]-2H,4H,5H,6H-pyrrolo[3,4-c]pyrazol-5-yl}-3-hydroxy-2-phenylpropan-1-one] | 76 | 22 | 137 | 116
O=C(N1Cc2cn(S(=O)(=O)c3ccc4ncsc4c3)nc2C1)[C@]1(c2ccccn2)CCOC1 (single isomer, unassigned) [Compound 20, 6-({5-[(3S)-3-(pyridin-2-yl)oxolane-3-carbonyl]-2H,4H,5H,6H-pyrrolo[3,4-c]pyrazol-2-yl}sulfonyl)-1,3-benzothiazole or 6-({5-[(3R)-3-(pyridin-2-yl)oxolane-3-carbonyl]-2H,4H,5H,6H-pyrrolo[3,4-c]pyrazol-2-yl}sulfonyl)-1,3-benzothiazole] | 44 | 14 | 113 | 60
O=C([C@@H](CO)c1ccccc1)N1Cc2cn(S(=O)(=O)c3ccc4c(c3)OCCO4)nc2C1 (single isomer, unassigned) [Compound 25, (2R)-1-[2-(2,3-dihydro-1,4-benzodioxine-6-sulfonyl)-2H,4H,5H,6H-pyrrolo[3,4-c]pyrazol-5-yl]-3-hydroxy-2-phenylpropan-1-one or (2S)-1-[2-(2,3-dihydro-1,4-benzodioxine-6-sulfonyl)-2H,4H,5H,6H-pyrrolo[3,4-c]pyrazol-5-yl]-3-hydroxy-2-phenylpropan-1-one] | 19 | 31 | 44 | 42
Cc1cccc([C@@]2(C(=O)N3Cc4cn(S(=O)(=O)c5ccc6ncsc6c5)nc4C3)CCOC2)n1 (single isomer, unassigned) [Compound 35, 6-({5-[(3S)-3-(6-methylpyridin-2-yl)oxolane-3-carbonyl]-2H,4H,5H,6H-pyrrolo[3,4-c]pyrazol-2-yl}sulfonyl)-1,3-benzothiazole or 6-({5-[(3R)-3-(6-methylpyridin-2-yl)oxolane-3-carbonyl]-2H,4H,5H,6H-pyrrolo[3,4-c]pyrazol-2-yl}sulfonyl)-1,3-benzothiazole] | 62 | 93 | 115 | 89
O=C([C@H](CO)c1ccccc1)N1Cc2cn(S(=O)(=O)c3ccc(OC4COC4)nc3)nc2C1 [Compound 95, (2S)-3-hydroxy-1-(2-{[6-(oxetan-3-yloxy)pyridin-3-yl]sulfonyl}-2H,4H,5H,6H-pyrrolo[3,4-c]pyrazol-5-yl)-2-phenylpropan-1-one] | 7080 |  |  | 
CN1Cc2cc(S(=O)(=O)n3cc4c(n3)CN(C(=O)[C@H](CO)c3ccccc3)C4)ccc2OC1=O [Compound 96, 6-({5-[(2S)-3-hydroxy-2-phenylpropanoyl]-2H,4H,5H,6H-pyrrolo[3,4-c]pyrazol-2-yl}sulfonyl)-3-methyl-3,4-dihydro-2H-1,3-benzoxazin-2-one] | 53 |  |  | 
O=C([C@H](NCCO)c1ccccc1F)N1Cc2cn(S(=O)(=O)c3ccc4ncccc4c3)nc2C1 [Compound 106, (2R)-2-(2-fluorophenyl)-2-[(2-hydroxyethyl)amino]-1-[2-(quinoline-6-sulfonyl)-2H,4H,5H,6H-pyrrolo[3,4-c]pyrazol-5-yl]ethan-1-one] | 44 |  |  | 

Now from value to compound:

AC50 [1] [nM] | AC50 [2] [nM] | PKR % activation [1] [%] | PKM2 % activation [2] [%] | Compound
28 | 33 | 82 | 133 | O=C([C@@H](CO)c1ccccc1)N1Cc2cn(S(=O)(=O)c3ccc4ncsc4c3)nc2C1 (single isomer, unassigned) [Compound 1, (2R)-1-[2-(1,3-benzothiazole-6-sulfonyl)-2H,4H,5H,6H-pyrrolo[3,4-c]pyrazol-5-yl]-3-hydroxy-2-phenylpropan-1-one or (2S)-1-[2-(1,3-benzothiazole-6-sulfonyl)-2H,4H,5H,6H-pyrrolo[3,4-c]pyrazol-5-yl]-3-hydroxy-2-phenylpropan-1-one]
50 | 33 | 99 | 79 | O=C([C@@H](CO)c1ccccc1)N1Cc2cn(S(=O)(=O)c3ccc4c(c3)NCCO4)nc2C1 (single isomer, unassigned) [Compound 22, (2R)-1-[2-(3,4-dihydro-2H-1,4-benzoxazine-6-sulfonyl)-2H,4H,5H,6H-pyrrolo[3,4-c]pyrazol-5-yl]-3-hydroxy-2-phenylpropan-1-one or (2S)-1-[2-(3,4-dihydro-2H-1,4-benzoxazine-6-sulfonyl)-2H,4H,5H,6H-pyrrolo[3,4-c]pyrazol-5-yl]-3-hydroxy-2-phenylpropan-1-one]
14 |  |  |  | O=C([C@H](CO)c1ccccc1)N1Cc2cn(S(=O)(=O)c3ccc4c(cnn4C(F)F)c3)nc2C1 [Compound 91, (2S)-1-(2-{[1-(difluoromethyl)-1H-indazol-5-yl]sulfonyl}-2H,4H,5H,6H-pyrrolo[3,4-c]pyrazol-5-yl)-3-hydroxy-2-phenylpropan-1-one]
17 |  |  |  | O=C([C@H](CO)c1ccccc1)N1Cc2cn(S(=O)(=O)c3ccc4nccnc4c3)nc2C1 [Compound 94, (2S)-3-hydroxy-2-phenyl-1-[2-(quinoxaline-6-sulfonyl)-2H,4H,5H,6H-pyrrolo[3,4-c]pyrazol-5-yl]propan-1-one]
> 10000 |  |  |  | O=C([C@H](CO)c1ccccc1)N1Cc2cn(S(=O)(=O)c3ccc(OC4CC4)nc3)nc2C1 [Compound 97, (2S)-1-{2-[(6-cyclopropoxypyridin-3-yl)sulfonyl]-2H,4H,5H,6H-pyrrolo[3,4-c]pyrazol-5-yl}-3-hydroxy-2-phenylpropan-1-one]
41 |  |  |  | O=C([C@H](CO)c1ccccc1)N1Cc2cn(S(=O)(=O)c3ccc(C4CC4)nc3)nc2C1 [Compound 101, (2S)-1-{2-[(6-cyclopropylpyridin-3-yl)sulfonyl]-2H,4H,5H,6H-pyrrolo[3,4-c]pyrazol-5-yl}-3-hydroxy-2-phenylpropan-1-one]
